We go through 17 compounds from patent US10934285B2, “Compounds and compositions for inhibiting the activity of SHP2” (Novartis AG, priority 2016, dated 2021).

The structures appear in SMILES notation. Where only a bound is given, the exact number is not on record here.

For orientation: IC50 means the concentration at which inhibition is half-maximal.

In the assay the target is SHP2 (Homo sapiens (Human), UniProt Q06124). Nature of the assay: SHP2 Allosteric Inhibition Assay. As to conditions: 0.5 nM SHP2 activated with 0.5 μM peptide IRS1_pY1172(dPEG8)pY1222; surrogate substrate DiFMUP; prompt fluorescence. In kind it is biochemical. An excerpt: SHP2 Allosteric Inhibition Assay
Sequence of SHP2 (Q06124 whole entry): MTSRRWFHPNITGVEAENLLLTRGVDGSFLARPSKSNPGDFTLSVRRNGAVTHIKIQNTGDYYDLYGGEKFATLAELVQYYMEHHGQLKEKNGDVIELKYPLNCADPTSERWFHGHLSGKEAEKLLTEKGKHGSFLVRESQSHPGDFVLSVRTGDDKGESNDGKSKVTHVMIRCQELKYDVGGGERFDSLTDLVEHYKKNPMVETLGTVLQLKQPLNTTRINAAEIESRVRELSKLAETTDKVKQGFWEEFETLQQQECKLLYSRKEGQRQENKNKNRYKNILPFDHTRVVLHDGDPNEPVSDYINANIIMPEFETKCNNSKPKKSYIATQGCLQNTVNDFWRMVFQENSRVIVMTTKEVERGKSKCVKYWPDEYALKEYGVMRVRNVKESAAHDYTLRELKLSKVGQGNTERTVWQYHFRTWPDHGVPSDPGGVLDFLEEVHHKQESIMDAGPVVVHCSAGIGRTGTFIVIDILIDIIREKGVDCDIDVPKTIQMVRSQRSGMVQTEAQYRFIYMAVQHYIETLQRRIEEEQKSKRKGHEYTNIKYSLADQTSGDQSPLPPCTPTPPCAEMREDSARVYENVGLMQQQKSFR
SHP2 is allosterically activated through binding of bis-tyrosyl-phorphorylated peptides to its Src Homology 2 (SH2) domains. The latter activation step leads to the release of the auto-inhibitory interface of SHP2, which in turn renders the SHP2 protein tyrosine phosphatase (PTP) active and available for substrate recognition and reaction catalysis. The catalytic activity of SHP2 was monitored using the surrogate substrate DiFMUP in a prompt fluorescence assay format.
After 30-60 minutes incubation at 25° C., the surrogate substrate DiFMUP (Invitrogen, cat #D6567) was added to the reaction and incubated at 25° C. for 30 minutes. […] The inhibitor dose response curves were analyzed using normalized IC50 regression curve fitting with control based normalization.
Take `CC1(CN)CCN(c2nnc(Sc3cccc(NC(=O)C4=C(O)CN(c5ccccc5)C4=O)c3Cl)c(N)n2)CC1` [Example 51, N-(3-((5-amino-3-(4-(aminomethyl)-4-methylpiperidin-1-yl)-1,2,4-triazin-6-yl)thio)-2-chlorophenyl)-4-hydroxy-2-oxo-1-phenyl-2,5-dihydro-1H-pyrrole-3-carboxamide]: half-maximal inhibition (IC50) required 0.012 µM.
The value for `CC1(N)CCN(c2nnc(Sc3cccc(NC(=O)C4=C(O)CN(c5ccccc5)C4=O)c3Cl)c(N)n2)CC1` [Example 52, N-(3-((5-amino-3-(4-amino-4-methylpiperidin-1-yl)-1,2,4-triazin-6-yl)thio)-2-chlorophenyl)-4-hydroxy-2-oxo-1-phenyl-2,5-dihydro-1H-pyrrole-3-carboxamide] was 0.003 µM.
`CC1(N)CCN(c2cnc(Sc3cccc(NC(=O)C4=C(O)CN(c5ccccc5)C4=O)c3Cl)c(N)n2)CC1` [Example 53, N-(3-((3-amino-5-(4-amino-4-methylpiperidin-1-yl)pyrazin-2-yl)thio)-2-chlorophenyl)-4-hydroxy-2-oxo-1-phenyl-2,5-dihydro-1H-pyrrole-3-carboxamide] registered a half-inhibitory concentration (IC50) of 0.0044 µM.
Next, `CN1C(=O)C(C(=O)Nc2cccc(Sc3ncc(N4CCC(C)(N)CC4)nc3N)c2Cl)=C(O)C1Cc1ccccc1` (centres unmarked) [Example 54, N-(3-((3-amino-5-(4-amino-4-methylpiperidin-1-yl)pyrazin-2-yl)thio)-2-chlorophenyl)-5-benzyl-4-hydroxy-1-methyl-2-oxo-2,5-dihydro-1H-pyrrole-3-carboxamide]: 0.0073 µM; `CCC1C(O)=C(C(=O)Nc2cccc(Sc3ncc(N4CCC(C)(N)CC4)nc3N)c2Cl)C(=O)N1C` (centres unmarked) [Example 55, N-(3-((3-amino-5-(4-amino-4-methylpiperidin-1-yl)pyrazin-2-yl)thio)-2-chlorophenyl)-5-ethyl-4-hydroxy-1-methyl-2-oxo-2,5-dihydro-1H-pyrrole-3-carboxamide]: 0.0028 µM.
With `CNC1(C)CCN(c2cnc(Sc3cccc(NC(=O)C4=C(O)CN(c5ccccc5)C4=O)c3Cl)c(N)n2)CC1` [Example 56, N-(3-((3-amino-5-(4-methyl-4-(methylamino)piperidin-1-yl)pyrazin-2-yl)thio)-2-chlorophenyl)-4-hydroxy-2-oxo-1-phenyl-2,5-dihydro-1H-pyrrole-3-carboxamide], the concentration for half-maximal inhibition (IC50) was determined as 0.0066 µM.
Next, `C[C@@H]1CN(c2cnc(Sc3cccc(NC(=O)C4=C(O)CN(c5ccccc5)C4=O)c3Cl)c(N)n2)C[C@H](C)N1` [Example 57, N-(3-((3-amino-5-(cis-3,5-dimethylpiperazin-1-yl)pyrazin-2-yl)thio)-2-chlorophenyl)-4-hydroxy-2-oxo-1-phenyl-2,5-dihydro-1H-pyrrole-3-carboxamide]: 0.011 µM; `CC1(N)CCN(c2cnc(Sc3cccc(NC(=O)c4c(O)c5ccccc5[nH]c4=O)c3Cl)c(N)n2)CC1` [Example 58, N-(3-((3-Amino-5-(4-amino-4-methylpiperidin-1-yl)pyrazin-2-yl)thio)-2-chlorophenyl)-4-hydroxy-2-oxo-1,2-dihydroquinoline-3-carboxamide]: 0.072 µM; `CN1C(=O)C(C(=O)Nc2cccc(Sc3ncc(N4CCC(C)(N)CC4)nc3N)c2Cl)=C(O)C1(C)C` [Example 59, N-(3-((3-amino-5-(4-amino-4-methylpiperidin-1-yl)pyrazin-2-yl)thio)-2-chlorophenyl)-4-hydroxy-1,5,5-trimethyl-2-oxo-2,5-dihydro-1H-pyrrole-3-carboxamide]: less than 0.003 µM.
Next, `O=C(Nc1cccc(Sc2ccc3nc(N4CCCCC4)[nH]c3n2)c1Cl)C1=C(O)[C@H](Cc2ccccc2)NC1=O` [Example 60, (S)-5-benzyl-N-(2-chloro-3-((2-(piperidin-1-yl)-3H-imidazo[4,5-b]pyridin-5-yl)thio)phenyl)-4-hydroxy-2-oxo-2,5-dihydro-1H-pyrrole-3-carboxamide]: 0.011 µM; `CN1C(=O)C(C(=O)Nc2cccc(Sc3ccc4nc(N5CCCCC5)[nH]c4n3)c2Cl)=C(O)C1Cc1ccccc1` (centres unmarked) [Example 61, 5-benzyl-N-(2-chloro-3-((2-(piperidin-1-yl)-3H-imidazo[4,5-b]pyridin-5-yl)thio)phenyl)-4-hydroxy-1-methyl-2-oxo-2,5-dihydro-1H-pyrrole-3-carboxamide]: 0.022 µM; `CCC1C(O)=C(C(=O)Nc2cccc(Sc3ccc4nc(N5CCCCC5)[nH]c4n3)c2Cl)C(=O)N1C` (centres unmarked) [Example 62, N-(2-chloro-3-((2-(piperidin-1-yl)-3H-imidazo[4,5-b]pyridin-5-yl)thio)phenyl)-5-ethyl-4-hydroxy-1-methyl-2-oxo-2,5-dihydro-1H-pyrrole-3-carboxamide]: 0.025 µM.
`CCC1C(O)=C(C(=O)Nc2cccc(Sc3ccc4nc(N5CCCCC5)[nH]c4n3)c2Cl)C(=O)N1c1ccccc1` (centres unmarked) [Example 63, N-(2-chloro-3-((2-(piperidin-1-yl)-3H-imidazo[4,5-b]pyridin-5-yl)thio)phenyl)-5-ethyl-4-hydroxy-2-oxo-1-phenyl-2,5-dihydro-1H-pyrrole-3-carboxamide]: it took 0.052 µM to reach half-maximal inhibition (IC50).
Next, `O=C(Nc1cccc(Sc2ccc3nc(N4CCCCC4)[nH]c3n2)c1Cl)C1=C(O)[C@H](c2ccccc2)NC1=O` [Example 64, (S)-N-(2-chloro-3-((2-(piperidin-1-yl)-3H-imidazo[4,5-b]pyridin-5-yl)thio)phenyl)-4-hydroxy-2-oxo-5-phenyl-2,5-dihydro-1H-pyrrole-3-carboxamide]: 0.09 µM; `CN1C(=O)C(C(=O)Nc2cccc(Sc3ccc4nc(N5CCCCC5)[nH]c4n3)c2Cl)=C(O)C1(C)C` [Example 65, N-(2-chloro-3-((2-(piperidin-1-yl)-3H-imidazo[4,5-b]pyridin-5-yl)thio)phenyl)-4-hydroxy-1,5,5-trimethyl-2-oxo-2,5-dihydro-1H-pyrrole-3-carboxamide]: 0.042 µM.
Next, `CC1(N)CCN(c2cnc(Sc3cccc(NC(=O)C4=C(O)CN(c5ccccc5)C4=O)c3)c(N)n2)CC1` [Example 66, N-(3-((3-Amino-5-(4-amino-4-methylpiperidin-1-yl)pyrazin-2-yl)thio)phenyl)-4-hydroxy-2-oxo-1-phenyl-2,5-dihydro-1H-pyrrole-3-carboxamide]: 0.017 µM.
For the compound `CC1(N)CCN(c2cnc(Sc3cccc(NC(=O)C4=C(O)CN(c5ccccc5)C4=O)c3C(F)(F)F)c(N)n2)CC1` [Example 67, N-(3-((3-Amino-5-(4-amino-4-methylpiperidin-1-yl)pyrazin-2-yl)thio)-2-(trifluoromethyl)phenyl)-4-hydroxy-2-oxo-1-phenyl-2,5-dihydro-1H-pyrrole-3-carboxamide], the IC50 was found to be 0.004 µM.
